US6548041B1, “Dopamine transporter imaging agents” (Organix, Inc., priority 1999, dated 2003)

What was measured:
[1] = test system: DAT sites in striatum; test: SPECT imaging of monkey brain with 99mTc labeled tracers; format: in vivo, Rhesus monkeys; settings: SPECT images
Method: (§1) All SPECT images were acquired with a MultiSPECT 2 gamma camera (Siemens, Hoffman Estates, Ill.) equipped with fan-beam collimators and peaked to the 140 KeV photopeak of ^99mTc (15% window). This camera has intrinsic resolution of 4.6 mm (FWHM), and a sensitivity of ˜240 cps/mCi. Images were acquired over 360° (60 projections/head, 128×128 matrix) in the continuous mode. Image reconstruction was performed using a conventional filtered back-projection algorithm to an in-plane resolution of 10 mm FWHM and attenuation correction via the Chang method.
(§2) Rhesus monkeys weighing approximately 7 kg were anesthetized with ketamine/xylazine (15.0 and 1.5 mg/kg) and positioned prone on the imaging bed of the SPECT camera. Before the start of imaging, a venous catheter was inserted in a peripheral vein for radiopharmaceutical administration. The heads of the animals were immobilized with a custom fabricated head holder. Approximately 20-25 mCi of ^99mTc labeled O-1505T, O-1508T, O-1561T or O-1560T was injected intravenously over 60 seconds. Dynamic SPECT imaging was initiated at the end of the infusion and consisted of 2 min. acquisitions during the first hour and 5 min. acquisitions thereafter.
(§3) SPECT slices with greatest striatal activity or in which the occipital cortex was well visualized were summed and regions of interest (ROI's) were constructed. In the striatal planes, ROI's were placed on the right and left striatum (caudate+putamen). Radioactivity in the right and left striatum were averaged. ROI radioactivities (cpm/cc) were decay corrected to the time of injection. The difference between striatal and occipital cortex activity (specific binding) was calculated for each image and was plotted as a function of time. Corrections for scattered fraction and partial volume effects were not performed.

[2] = target: T1, DAT sites in striatum (Macaca mulatta, UniProt Q7JHP9); test: as above; format: in vivo, Rhesus monkeys
T1 construct: from tissue; host or cells: brain (striatum) of living rhesus monkeys, imaged in vivo
Method: as §1, §2, §3

[3] = Biodistribution and radiation dosimetry (MIRdose); format: in vivo, Sprague-Dawley rats
Method: Groups of male Sprague-Dawley rats were in injected with ˜10 mCi of ^99mTc labeled O-1505T and O-1561T. At time intervals between 5 min. and 24 hrs after injection, groups of 6 animals injected with each radiopharmaceutical were sacrificed and biodistribution was measured. Samples of blood, heart, lung, liver, spleen, kidney, adrenal, stomach, GI tract, testes, bone, bone marrow and skeletal muscle were weighed and radioactivity was measured with a well type gamma counter (LKB model #1282, Wallac Oy, Finland). To correct for radioactive decay and permit calculation of the concentration of radioactivity in each organ as a fraction of the administered dose, aliquots of the injected doses were counted simultaneously. The results were expressed as percent injected dose per gram (%I.D./g) and radiation dosimetry was estimated by the MIRdose method.

[4] = target: T1, DAT sites in striatum; test: SPECT of MPTP treated monkeys (animal model of Parkinson's disease); format: in vivo, rhesus monkey; settings: one month after MPTP treatment
Source text: The neurotoxin MPTP ([…]), when administered to monkeys, produces a spectrum of motor, cognitive, biochemical and morphological changes that is not replicated in rodents. MPTP-treated monkeys develop neurological deficits (resting tremor, rigidity, akinesia, postural abnormalities), morphological changes (cell loss in the substantia nigra, ventral tegmental area, retrorubal fields) and biochemical changes (severe depletion of DA and decreases in norepinephrine and serotonin) that closely, parallel idiopathic PD and post-encephalitic Parkinsonism.
Two monkeys were treated with MPTP; 3-5 doses of 0.6 mg/kg administered over 10 days. Treatment was performed under ketamine anesthesia (15 mg/kg). This dose of MPTP, has previously been used to produce Parkinsonism within 2-3 weeks and depletion of ^3H or ^11C. CFT binding sites by one month. Animals treated in this manner were expected to show an inverse relationship between SPECT tracer binding and motor dysfunction. […]
SPECT slices with greatest striatal activity or in which the occipital cortex was well visualized were summed and regions of interest (ROI's) were constructed. […] Radioactivity in the right and left striatum were averaged. […] The difference between striatal and occipital cortex activity (specific binding) was calculated for each image and was plotted as a function of time. […]

[5] = target: T2, DAT sites (Macaca mulatta, UniProt Q7JHP9); test: Selectivity for DAT sites in the monkey brain (displacement by unlabeled CFT); format: in vivo
T2 construct: from tissue; host or cells: brain (striatum) of living rhesus monkeys, imaged in vivo
Method: For this study, a monkey was positioned supine on the imaging table of the MultiSPECT 2 gamma camera and injected with ˜20 mCi of ^99mTc O-1560T as described above. At approximately 20 min. after radiopharmaceutical administration, the animal was injected with CFT (1.0 mg/kg) and imaging was continued for an additional 70 min.
as §3

T2 sequence (Q7JHP9 1-620): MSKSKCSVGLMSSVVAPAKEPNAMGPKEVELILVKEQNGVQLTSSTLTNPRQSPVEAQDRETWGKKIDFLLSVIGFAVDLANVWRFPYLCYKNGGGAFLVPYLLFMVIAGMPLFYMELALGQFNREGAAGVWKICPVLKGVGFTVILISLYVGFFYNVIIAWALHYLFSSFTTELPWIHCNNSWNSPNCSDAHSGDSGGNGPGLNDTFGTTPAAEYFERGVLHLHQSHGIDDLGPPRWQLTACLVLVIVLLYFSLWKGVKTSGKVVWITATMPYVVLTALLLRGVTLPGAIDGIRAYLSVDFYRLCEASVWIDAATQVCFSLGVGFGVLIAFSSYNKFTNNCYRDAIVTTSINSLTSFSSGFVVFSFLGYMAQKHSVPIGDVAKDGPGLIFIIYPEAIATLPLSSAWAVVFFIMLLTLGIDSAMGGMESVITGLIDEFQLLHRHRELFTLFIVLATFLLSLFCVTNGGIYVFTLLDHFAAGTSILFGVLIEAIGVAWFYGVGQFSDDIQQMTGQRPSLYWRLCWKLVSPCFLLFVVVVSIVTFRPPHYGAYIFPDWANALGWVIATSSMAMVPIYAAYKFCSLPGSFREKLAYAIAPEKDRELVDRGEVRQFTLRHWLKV
T1 sequence (Q7JHP9 1-620): as above

CCC(=O)C1C(c2ccc(F)cc2)CC2CCC1N2CCCN1CC[S][99Tc]2(=[O])[S]CC[N]2C(=O)C1 (stereo not drawn) [Compound O-1505T, N-[(2-((3′-N′-Propyl-(1″R)-2″β-1-propanoyl-3″α-(4-fluorophenyl)-tropane)-(2-mercaptoethyl)amino)acetyl)-2-aminoethanethiolato]technetium (V) Oxide]
accumulation in thalamus, hypothalamus or midbrain (regions rich in 5-HT transporters) [1]: lack of accumulation
time after injection to excellent contrast between striatum and the rest of the brain ([2]; i.v., normal monkeys): ≤ 30 min
accumulation of radioactivity in striatum vs other areas of the brain (SPECT images) ([2]; images acquired between 30 and 50 minutes after injection): high concentrations of radiopharmaceutical in the striatum with minimal accumulation in other areas of the brain
striatal to occipital cortex ratio ([2]; region of interest analysis, SPECT images 30-50 minutes after i.v. injection of 20-25 mCi): ~2.5
radiation dose to target organ (urinary bladder) ([3]; MIRdose calculations from rat biodistribution): 0.29 rem/mCi
total body effective dose ([3]; MIRdose estimate from rat biodistribution): 0.037 rem/mCi
clearance from tissues (biodistribution) ([3]; rat, 5 min to 24 hrs after injection): cleared rapidly from all tissues of the rat
striatal accumulation after MPTP treatment compared with normal animals [4]: the level of accumulation decreased markedly and the striatum could not be differentiated from surrounding structures
striatal accumulation after a receptor saturating dose of unlabeled CFT ([5]; CFT 1.0 mg/kg at about 20 min, by 60 minutes after injection): no evidence of focal accumulation in the striatum
accumulation in the striatum (SPECT images) ([5]; before injection of CFT): significant accumulation
time after injection to excellent contrast between striatum and the rest of the brain ([5]; before the effect of CFT): ≤ 30 min
